Patent US20140343128A1, “Combination of a phosphoinositide 3-kinase inhibitor and a modulator of the Janus Kinase 2 - Signal Transducer and Activator of Transcription 5 pathway” (NOVARTIS FORSCHUNGSSTIFTUNG, ZWEIGNIEDERLASSUNG FRIEDRICH …, priority 2011, published 2014)

Legend:
[1] = tested on: pSTAT5/STAT5; assay: pSTAT5/STAT5 immunoblotting with densitometry in BEZ-treated human breast cancer cell lines; assay type: cell-based; details: 300 nM BEZ, 8 h, relative to DMSO
[2] = tested on: pJAK2, pSTAT5; assay: pJAK2/pSTAT5 in xenografts of treated mice; set-up: species or system SCID/beige mice; details: 30 mg/kg once, after 8 hours of treatment
From the text: (§1) Animal experiments. SCID/beige, SCID/NOD and Balb/c mice (Jackson Labs) were maintained under specific pathogen-free conditions and were used in compliance with protocols approved by the Institutional Animal Care and Use Committees of the FMI, which conform to institutional and national regulatory standards on experimental animal usage. For orthotopical engraftment of breast cancer cell lines, 1×10^6 MDA-MB-468, 1×10^6 MDA-MB-231-LM2 and 0.5×10^6 […] or 4T-1-GFP cells were suspended in a 100-μl mixture of Basement Membrane Matrix Phenol Red-free (BD Biosciences) and PBS 1:1 and injected into the mammary gland 4 or between mammary glands 2 and 3. Primary patient breast tumors were cut into 1 mm×1 mm pieces and transplanted into mammary gland 4. Tumor-bearing mice were randomized based on tumor volume prior to the initiation of treatment, which was initiated when average tumor volume was at least 100 mm^3. […] Tumors were measured every 3 to 4 days with vernier calipers, and tumor volumes were calculated by the formula 0.5×(larger diameter)×(smaller diameter)^2. End point tumor sizes were analyzed for synergism using the formula AB/C<A/C×B/C, where C=tumor volume VHC, A=tumor volume compound 1, B=tumor volume compound 2, AB=tumor volume combination (Clarke, 1997).

[3] = tested on: pAKT, pS6; assay: Time-course immunoblots of target inhibition (pAKT, pS6) in breast cancer lines; assay type: cell-based, human, mouse; details: MDA 468, MDA 231 LM2 and 4T-1 lines; single dose; up to 20 hours after treatment
[4] = tested on: JAK2/STAT5 and IL-8 secretion; assay: JAK2/STAT5 and IL-8 in primary human triple-negative breast tumor xenografts; assay type: in vivo, human tumors in immunodeficient mice; details: 30 mg/kg BEZ, 3-4 days, xenografts in immunodeficient mice
From the text: as §1

[5] = tested on: pSTAT5/STAT5; assay: pSTAT5/STAT5 immunoblotting with densitometry in BEZ-treated Balb/c mouse breast cancer lines; assay type: cell-based; details: 300 nM BEZ, 8 h, relative to DMSO
[6] = tested on: pJAK2/JAK2; assay: pJAK2/JAK2 ELISA in BEZ-treated Balb/c mouse breast cancer lines; assay type: cell-based; details: 300 nM BEZ, 8 h, relative to DMSO
[7] = tested on: IL-8; assay: IL-8 levels in tumors and plasma of treated mice; assay type: in vivo; details: mice treated as in FIG. 5
From the text: as §1

[8] = tested on: pJAK2/JAK2; assay: pJAK2/JAK2 ELISA in BEZ-treated human breast cancer cell lines; assay type: cell-based; details: 300 nM BEZ, 8 h, relative to DMSO
[9] = tested on: pJAK2, pSTAT5, pSTAT3; assay: Time-course immunoblots/ELISA of JAK2/STAT crosstalk in breast cancer lines in vitro; assay type: cell-based, human, mouse; details: for pJAK2 and pSTAT5 (JAK2/STAT5 activation) in vitro: after 4 hours-8 hours of treatment; for Start of JAK2 activation (pJAK2/pSTAT5 upregulation) after adding the compound: single PI3K or mTOR inhibition, in vitro time course
[10] = tested on: IL-8 secretion; assay: IL-8 secretion ELISA in BEZ-treated breast cancer cell lines; assay type: cell-based, human; details: 300 nM BEZ; for IL8 BEZ vs. DMSO: 20 h, relative to DMSO
[11] = tested on: MDA231 LM2 and 4T-1 tumors; assay: Lung metastasis (metastatic index) in tumor-bearing mice; assay type: in vivo; details: mice bearing MDA231 LM2 shJAK2 or shNT tumors treated with BSK
From the text: as §1, with “4.” for “4. Tumor-bearing mice were randomized based on tumor volume prior to the initiation of treatment, which was initiated when average tumor volume was at least 100 mm^3.”
Immunohistochemistry. […] Mouse lungs were fixed in Bouin's fixative and visible metastatic lung nodules were counted using a binocular.

`Cn1c(=O)n(-c2ccc(C(C)(C)C#N)cc2)c2c3cc(-c4cnc5ccccc5c4)ccc3ncc21` [COMPOUND A, 2-methyl-2-[4-(3-methyl-2-oxo-8-quinolin-3-yl-2,3-dihydro-imidazo[4,5-c]quinolin-1-yl)-phenyl]-propionitrile] was tested. Which “pSTAT5/STAT5 BEZ vs. DMSO” value ([1]; BT474 cells) did it give?
The value was 1.02.

And the “pSTAT5/STAT5 BEZ vs. DMSO” value ([1]; BT549 cells)?
The value was 1.61.

What about the “pSTAT5/STAT5 BEZ vs. DMSO” value ([1]; HCC1937 cells) of the same compound?
The value was 1.66.

What about the “pSTAT5/STAT5 BEZ vs. DMSO” value ([1]; HCC1954 cells) of the same compound?
The value was 1.05.

What about the “pSTAT5/STAT5 BEZ vs. DMSO” value ([1]; Hs578t cells) of the same compound?
Its value is 0.96.

And the “pSTAT5/STAT5 BEZ vs. DMSO” value ([1]; MCF7 cells)?
Its value is 0.92.

What about the “pSTAT5/STAT5 BEZ vs. DMSO” value ([1]; MCF10A cells) of the same compound?
The value was 3.21.

And the “pSTAT5/STAT5 BEZ vs. DMSO” value ([1]; MDA 231 LM2 cells)?
Its value is 2.32.

And the “pSTAT5/STAT5 BEZ vs. DMSO” value ([1]; MDA 231 cells)?
Its value is 1.58.

What about the “pSTAT5/STAT5 BEZ vs. DMSO” value ([1]; MDA 436 cells) of the same compound?
Its value is 1.77.

What about the “pSTAT5/STAT5 BEZ vs. DMSO” value ([1]; MDA 468 cells) of the same compound?
The value was 2.11.

And the “pSTAT5/STAT5 BEZ vs. DMSO” value ([1]; SKBR3 cells)?
Its value is 0.82.

And the “pSTAT5/STAT5 BEZ vs. DMSO” value ([1]; SUM159 cells)?
Its value is 1.09.

What about the “pSTAT5/STAT5 BEZ vs. DMSO” value ([1]; T47D cells) of the same compound?
Its value is 0.62.

And the “pSTAT5/STAT5 BEZ vs. DMSO” value ([1]; ZR75-1 cells)?
The value was 1.62.

And the “pJAK2 and pSTAT5 (JAK2/STAT5 activation) in vivo” value [2]?
The value was “activates”.

And the “pJAK2 and pSTAT5 (JAK2/STAT5 activation) in vivo” value ([2]; listed as BEZ)?
The value was “considerable upregulation”.

What about the pAKT levels [3] of the same compound?
Its pAKT levels is “reduced”.

What about the pS6 levels [3] of the same compound?
Its pS6 levels is “completely blocked”.

What about the “JAK2/STAT5 and IL-8 secretion in human primary triple-negative breast tumors” value [4] of the same compound?
The value was “activates”.

And the “pSTAT5/STAT5 BEZ vs. DMSO” value ([5]; 4T-1 cells)?
The value was 2.65.

What about the “pSTAT5/STAT5 BEZ vs. DMSO” value ([5]; 168FARN cells) of the same compound?
Its value is 1.9.

What about the “pJAK2/JAK2 BEZ vs. DMSO” value ([6]; 4T-1 cells) of the same compound?
Its value is 2.02.

And the “pJAK2/JAK2 BEZ vs. DMSO” value ([6]; 168FARN cells)?
Its value is 1.74.

And the “IL-8 secretion in vivo (tumors and plasma)” value [7]?
The value was “enhanced”.

What about the “pJAK2/JAK2 BEZ vs. DMSO” value ([8]; BT474 cells) of the same compound?
Its value is 0.95.

What about the “pJAK2/JAK2 BEZ vs. DMSO” value ([8]; BT549 cells) of the same compound?
The value was 1.21.

And the “pJAK2/JAK2 BEZ vs. DMSO” value ([8]; HCC1937 cells)?
The value was 1.62.

And the “pJAK2/JAK2 BEZ vs. DMSO” value ([8]; HCC1954 cells)?
The value was 1.32.

And the “pJAK2/JAK2 BEZ vs. DMSO” value ([8]; Hs578t cells)?
The value was 1.18.

And the “pJAK2/JAK2 BEZ vs. DMSO” value ([8]; MCF7 cells)?
The value was 0.74.

What about the “pJAK2/JAK2 BEZ vs. DMSO” value ([8]; MCF10A cells) of the same compound?
Its value is 2.11.

What about the “pJAK2/JAK2 BEZ vs. DMSO” value ([8]; MDA 231 LM2 cells) of the same compound?
Its value is 2.18.

And the “pJAK2/JAK2 BEZ vs. DMSO” value ([8]; MDA 231 cells)?
Its value is 1.25.

What about the “pJAK2/JAK2 BEZ vs. DMSO” value ([8]; MDA415 cells) of the same compound?
The value was 0.88.

And the “pJAK2/JAK2 BEZ vs. DMSO” value ([8]; MDA 436 cells)?
The value was 1.53.

What about the “pJAK2/JAK2 BEZ vs. DMSO” value ([8]; MDA 468 cells) of the same compound?
Its value is 2.32.

What about the “pJAK2/JAK2 BEZ vs. DMSO” value ([8]; SKBR3 cells) of the same compound?
The value was 0.65.

What about the “pJAK2/JAK2 BEZ vs. DMSO” value ([8]; SUM159 cells) of the same compound?
Its value is 0.92.

And the “pJAK2/JAK2 BEZ vs. DMSO” value ([8]; T47D cells)?
The value was 1.05.

And the “pJAK2/JAK2 BEZ vs. DMSO” value ([8]; ZR75-1 cells)?
Its value is 1.36.

What about the “Pattern of JAK2/STAT5 activation” value ([9]; 300 nM BEZ) of the same compound?
Its value is “biphasic activation”.

And the “Levels of pSTAT3” value ([9]; BEZ treatment)?
Its value is “largely unaffected”.

What about the “pJAK2 and pSTAT5 (JAK2/STAT5 activation) in vitro” value [9] of the same compound?
The value was “activates”.

What about the “pJAK2 and pSTAT5 (JAK2/STAT5 activation) in vitro” value ([9]; listed as BEZ) of the same compound?
Its value is “considerable upregulation”.

What about the “IL-8 secretion in breast cancer” value ([10]; breast cancer cells) of the same compound?
Its value is “induces”.

What about the “IL8 BEZ vs. DMSO” value ([10]; BT474 cells) of the same compound?
Its value is 0.99.

What about the “IL8 BEZ vs. DMSO” value ([10]; BT549 cells) of the same compound?
Its value is 1.42.

What about the “IL8 BEZ vs. DMSO” value ([10]; HCC1937 cells) of the same compound?
Its value is 1.06.

What about the “IL8 BEZ vs. DMSO” value ([10]; HCC1954 cells) of the same compound?
The value was 1.22.

What about the “IL8 BEZ vs. DMSO” value ([10]; Hs578t cells) of the same compound?
Its value is 1.08.

And the “IL8 BEZ vs. DMSO” value ([10]; MCF7 cells)?
Its value is 0.81.

And the “IL8 BEZ vs. DMSO” value ([10]; MCF10A cells)?
The value was 1.23.

What about the “IL8 BEZ vs. DMSO” value ([10]; MDA 231 LM2 cells) of the same compound?
The value was 2.04.

What about the “IL8 BEZ vs. DMSO” value ([10]; MDA 231 cells) of the same compound?
Its value is 1.41.

What about the “IL8 BEZ vs. DMSO” value ([10]; MDA415 cells) of the same compound?
Its value is 0.91.

And the “IL8 BEZ vs. DMSO” value ([10]; MDA 436 cells)?
Its value is 1.41.

What about the “IL8 BEZ vs. DMSO” value ([10]; MDA 468 cells) of the same compound?
Its value is 1.91.

What about the “IL8 BEZ vs. DMSO” value ([10]; SKBR3 cells) of the same compound?
Its value is 1.01.

And the “IL8 BEZ vs. DMSO” value ([10]; SUM159 cells)?
The value was 1.24.

And the “IL8 BEZ vs. DMSO” value ([10]; T47D cells)?
The value was 0.71.

And the “IL8 BEZ vs. DMSO” value ([10]; ZR75-1 cells)?
Its value is 1.55.

For `Nc1cc(C(F)(F)F)c(-c2cc(N3CCOCC3)nc(N3CCOCC3)n2)cn1` [COMPOUND C, 5-(2,6-di-morpholin-4-yl-pyrimidin-4-yl)-4-trifluoromethyl-pyridin-2-ylamine], which “Start of JAK2 activation (pJAK2/pSTAT5 upregulation) after adding the compound” value [9] is on record?
The value was 8 hours.

With `Fc1cc(-c2cccc3ncc(-c4cnn(C5CCNCC5)c4)nc23)cc(F)c1CN1CCOCC1` [COMPOUND D, 8-(3,5-Difluoro-4-morpholin-4-ylmethyl-phenyl)-2-(1-piperidin-4-yl-1H-pyrazol-4-yl)-quinoxaline] as the compound, how does the “Metastasis (metastatic index), BSK alone” value [11] read?
Its value is “reduces”.

And the “IL-8 secretion in vivo (tumors and plasma)” value [7]?
The value was “reduced”.

What about the “Upregulation of pSTAT5 by BEZ” value ([9]; JAK2 inhibition added to BEZ treatment, MDA 468 cells, 8 h BEZ) of the same compound?
The value was “counteracted”.

Which “Start of JAK2 activation (pJAK2/pSTAT5 upregulation) after adding the compound” value [9] does the source give for `CO[C@H]1C[C@@H]2CC[C@@H](C)[C@@](O)(O2)C(=O)C(=O)N2CCCC[C@H]2C(=O)O[C@H]([C@H](C)C[C@@H]2CC[C@@H](OCCO)[C@H](OC)C2)CC(=O)[C@H](C)/C=C(\C)[C@@H](O)[C@@H](OC)C(=O)[C@H](C)C[C@H](C)/C=C/C=C/C=C/1C` [RAD001, everolimus, reference compound] here?
Its value is 4 hours.
